Source: publication PMC8378262 (Journal of controlled release : official journal of the …, 2021)

System: Sprague Dawley rats
Assay: Mean systemic arterial pressure
Type: in vivo
Conditions: healthy rats, intravenous 3 mg/kg

Compound | change in mSAP (until 6 h after injection) | duration of the reduction in mSAP after injection | maximum reduction of mSAP from baseline (within 30 min)
O=[N+]([O-])c1ccc(COc2nccc3c(S(=O)(=O)N4CCCNCC4)cccc23)cc1 [FasPRO, 5-((1,4-diazepan-1-yl)sulfonyl)-1-((4-nitrobenzyl)oxy)isoquinoline] | did not produce any changes in mSAP |  | 
O=S(=O)(c1cccc2cnccc12)N1CCCNCC1 [Fasudil, reference compound] |  | 90 min | 38.6±8.4%
